According to patent US20050181516A1, “Bioequivalence determination using expression profiling” (priority 2002, published 2005):

Columns and labels:
[1] = test system: reperfusion after ischemia in the brain; settings: in vivo; cited from earlier work
psoriasis = experiment: 4 weeks clinical study of oral ASM981 in psoriatic patients; format: in vivo, human; settings: 8 ASM981-treated patients, oral 60 mg/day (30 mg b.i.d.)
Experimental: A clinical study was initiated with a standardized oral formulation of ASM981 (pimecrolimus) to treat psoriatic patients. The purpose of this study was both to investigate the nature of the alteration in gene expression profiles caused by the administration of a standardised oral formulation of pimecrolimus and to produce the necessary data to allow the bioequivalence of other pharmaceutically equivalent oral formulations of pimecrolimus to be tested. The dose used was 60 mg/day, given as 30 mg twice a day (b.i.d.). To make this dose the […] tablets were cut in half using a special cutter (Tablettenteiler NR.96) so as to obtain 30 mg of ASM981 or a matched amount of placebo. ASM981 was evaluated as treatment for psoriasis using an oral dose of 60 mg (30 mg b.i.d) during a 4 weeks clinical study. The oral formulation used was a highly standardized oral dosage form that could be produced in large amounts and with a highly uniform composition, this was oral formulation A. The cohort included 10 patients; 8 received oral formulation A and 2 received a placebo. Blood samples were collected before the first administration to establish the gene expression baseline and on days 13 or 14 after treatment with ASM981 or placebo and submitted to gene expression analysis in order to gain insights into the mechanisms of action of the compound.

T cells and mast cells = settings: in vitro; cited from earlier work

**Q.** With `CC[C@@H]1/C=C(\C)C[C@H](C)C[C@H](OC)[C@H]2O[C@@](O)(C(=O)C(=O)N3CCCC[C@H]3C(=O)O[C@H](/C(C)=C/[C@@H]3CC[C@H](Cl)[C@H](OC)C3)[C@H](C)[C@@H](O)CC1=O)[C@H](C)C[C@@H]2OC` [ASM981, 33-Epichloro-33-desoxy-ascomycin] as the compound, how does the “anti-inflammatory properties in reperfusion after ischemia in the brain” value [1] read?
**A.** The value was “successfully tested”.

**Q.** And the “psoriasis (clinical data)” value (psoriasis)?
**A.** The value was “reduction of psoriasis”.

**Q.** And the IgE promoter activity (T cells and mast cells)?
**A.** Its IgE promoter activity is “decrease”.

**Q.** And the “T cell activation and proliferation” value (T cells and mast cells)?
**A.** Its value is “decrease”.

**Q.** What about the inflammatory mediators release (T cells and mast cells) of the same compound?
**A.** The inflammatory mediators release was “impaired”.
